In assay [1] the target is T1, GnRH receptor (Homo sapiens, UniProt P30968).
T1 sequence (P30968 1-328): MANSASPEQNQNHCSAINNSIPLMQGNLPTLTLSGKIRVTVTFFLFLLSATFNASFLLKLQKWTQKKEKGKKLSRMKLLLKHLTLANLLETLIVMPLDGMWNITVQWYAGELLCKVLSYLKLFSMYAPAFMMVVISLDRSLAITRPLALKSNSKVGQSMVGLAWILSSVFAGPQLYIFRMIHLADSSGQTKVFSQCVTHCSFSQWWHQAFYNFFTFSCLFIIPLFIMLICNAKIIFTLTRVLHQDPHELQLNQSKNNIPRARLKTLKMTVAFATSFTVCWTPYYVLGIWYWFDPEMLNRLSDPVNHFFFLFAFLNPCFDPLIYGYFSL
The experiment in a line: GnRH receptor-membrane binding assay ([125I]-D-Trp6-LHRH displacement). Details: purchased PerkinElmer; host or cells: CHO-K1 (ATCC CCL-61), stably transfected. To be noted: compound at 10 nM; 0.2 nM [125I]-D-Trp6-LHRH; CHO-K1 GnRH receptor membrane; read-out: GnRH binding inhibition (%) at 10 nM. As to the method: A GnRH receptor membrane binding assay was carried out for the compounds of the present invention by employing a membrane substrate (PerkinElmer) isolated from CHO-K1 cells (ATCC CCL-61) stably transfected with a GnRH receptor.
A reaction was initiated by the addition of a 0.2 nM [^125I]-labeled D-Trp^6-LHRH peptide and the GnRH receptor membrane substrate at a density of 1 μg/250 μL/well, together with the inventive compounds at various concentrations ranging from 0.1 nM to 100 nM, to a binding buffer composed of 25 mM Hepes (pH 7.4), 10 mM MgCl2, 1 mM CaCl2 and 0.5% BSA (pH 7.4). The reaction mixture was incubated at 27° C. for 1 hr and subjected to vacuum suction for binding to a filter (Fitermat A, PerkinElmer). The filter was washed several times with 50 mM tris-HCl buffer to terminate the reaction. The radioactivity binding to the filter was measured using MicroBeta2 TriLux (PerkinElmer). The binding inhibition rate (%) of the inventive compounds were analyzed on the basis of the measured radioactivity, and IC50 value was calculated using a non-linear least square regression method with Prism (GraphPad, Inc.).

Assay [2] deals with T1, GnRH receptor. Put plainly: NFAT reporter (luciferase) gene expression assay for antagonistic effect on GnRH receptor, HEK293 transformed with pcDNA3.1/GnRH receptor and pGL4/NFAT promoter. The class given is cell-based. The note with it: compound at 100 nM; leuprolide acetate as ligand; HEK293; read-out: NFAT reporter activity inhibition (%) at 100 nM. As to the method:
For evaluation of antagonistic effect on GnRH receptor, double-transformed cell line, HEK293 (ATCC CRL-1573) which is transformed with pcDNA3.1/GnRH receptor and pGL4/NFAT promoter, was employed.
To conduct a GnRH receptor assay, the HEK293 (ATCC CRL-1573) cell line was diluted at a density of 3×10^4 cells/well in a DMEM medium supplemented with 10% FBS, 1% Penicillin-Streptomycin, and plated into polylysine-coated 96-well plates having a white-clear bottom, followed by incubating the cells at 37° C. for 24 hrs. Then, the medium was changed with a serum-free DMEM medium (1% Penicillin-Streptomycin), and the cells were incubated for an additional 16 hrs before use.
Test compounds were added to the wells in an amount of 1 μM to 0.01 nM, respectively, and further incubated for 1 hr. Then, leuprolide acetate as a ligand (Sigma) was added to the wells in an amount of 1 nM or 20 nM and subjected to an additional incubation for 6 hrs. The reagent of Luciferase assay system (Promega, Cat. No. E1500) was added to the wells and luminescence was measured using a luminometer (PerkinElmer, VICTOR3™, 1420 Multilabel Counter). The compound of formula 10b described in J. Med. Chem. 2008, 51, 7478 was used as a comparative compound.
Each sample was analyzed at a 6-dose level and the NFAT reporter inhibitory rate (%) of the inventive compounds was calculated according to the following equation based on the measured luminescence. Inhibition (%)={1−(compound−negative control)/(positive control−negative control)}×100 [Equation]
wherein, positive control is GnRH treated group; and negative control is non-treated group.

Regarding `CONC(=O)Nc1cccc(C(Cn2c(=O)c3c(n(Cc4c(F)cccc4C(F)(F)F)c2=O)COC32CCN(Cc3ccc(C(F)(F)F)o3)CC2)NC(=O)OC(C)(C)C)c1` (centres unmarked) [Example 63, tert-butyl (2-(1-(2-fluoro-6-(trifluoromethyl)benzyl)-2,4-dioxo-1′-((5-(trifluoromethyl)furan-2-yl)methyl)-1H-spiro[furo[3,4-d]pyrimidine-5,4′-piperidin]-3(2H,4H,7H)-yl)-1-(3-(3-methoxyureido)phenyl)ethyl)carbamate], at GnRH receptor [1], the inhibition at 0.01 µM is 89.8%. On GnRH receptor [2], the inhibition at 0.1 µM was determined as 100%.

Values taken from patent US9481684B2, “Gonadotropin releasing hormone receptor antagonists, method for the preparation thereof and pharmaceutical composition comprising the same” (SK CHEMICALS CO., LTD., priority 2012, dated 2016).
